Laboratory results: patent US5089623A, “Certain imidate insecticides” (Imperial Chemical Industries Plc, priority 1990, dated 1992)

What was measured:
Type in all cases: in vivo
[1] = system: Tobacco Budworm [Heliothis virescens (Fabricius)] eggs; experiment: Tobacco budworm egg test (TBW-E); conditions: percent in solution
Excerpt: Eggs: Paper towel patches of 2-day old eggs of the tobacco budworm were dipped in acetone solutions of the test compound and placed in petri dishes containing a portion of larval rearing medium. […] Test concentrations ranged from 0.1% downward.

[2] = system: Cabbage Looper [Trichoplusia ni (Hubner)]; experiment: Cabbage looper test (CL); conditions: second-instar larvae, 3-5 days, percent in solution
[3] = system: Housefly [Musca domestica]; experiment: Housefly insecticidal test (HF); conditions: per 25 female houseflies, 48 hours

SMILES | LC50 TBW E [1] | LC50 CL [2] | LC50 HF [3]
COc1ccc(Cl)cc1N=C(OCc1cccc(Oc2ccccc2)c1)C(C)C [Compound 264] | > 0.1% | 0.03% | > 100 µg
CC(C)C(=Nc1ccc(F)cc1)OCc1cccc(Oc2ccc(F)c(F)c2)c1 [Compound 265] | 0.07% | 0.00025% | 10 µg
CC(C)C(=Nc1cccc(SC(F)(F)F)c1)OCc1cccc(Oc2ccc(F)cc2)c1 [Compound 272] | > 0.1% | 0.0024% | > 100 µg
CC(C)C(=Nc1ccc2c(c1)OCO2)OCc1cc(Oc2ccc(F)cc2)ccc1Cl [Compound 274] | > 0.1% | 0.1% | > 100 µg
CC(C)C(=Nc1ccc(F)c(F)c1)OCc1cccc(Oc2ccc(Br)cc2)c1 [Compound 275] | 0.045% | 0.00012% | 21 µg
CC(C)C(=Nc1ccc(F)c(Br)c1)OCc1cccc(Oc2ccc(Br)cc2)c1 [Compound 276] | 0.1% | 0.002% | 39 µg
CC(C)C(=Nc1ccc(C2CCCCC2)cc1)OCc1cccc(Oc2ccc(F)cc2)c1 [Compound 280] | > 0.1% | 0.024% | > 100 µg
CC(C)C(=Nc1ccc(C(F)(F)F)cc1)OCc1ccc(F)c(Oc2ccc(F)cc2)c1 [Compound 287] | > 0.1% | 0.0025% | > 100 µg
CC(C)C(=Nc1cccc(OC(F)(F)C(F)F)c1)OCc1cccc(Oc2ccc(F)cc2)c1 [Compound 288] | > 0.1% | 0.0015% | > 100 µg
CCC(CC)C(=Nc1ccc(Cl)cc1)OCc1cccc(Oc2ccc(F)cc2)c1 [Compound 290] | > 0.1% | 0.017% | > 100 µg
CCC(CC)C(=Nc1cccc(C(F)(F)F)c1)OCc1cccc(Oc2ccc(F)cc2)c1 [Compound 291] | > 0.1% | 0.004% | > 100 µg
CC(Br)C(=Nc1ccc(F)c(Cl)c1)OCc1cccc(Oc2ccc(F)cc2)c1 (stereo not drawn) [Compound 305] | > 0.1% | 0.048% | > 100 µg
CC(C)C(=Nc1ccc(C(C)(C)C)c(Cl)c1)OCc1cccc(Oc2ccc(F)cc2)c1 [Compound 308] | > 0.1% | 0.009% | > 100 µg
CC(C)(F)C(=Nc1ccc(F)c(Cl)c1)OCc1cccc(Oc2ccc(F)cc2)c1 [Compound 309] | 0.07% | 0.00017% | > 100 µg
CC(C)C(=Nc1ccc(Cl)cc1Cl)OCc1cccc(Oc2ccccc2)c1 [Compound 311] | 0.1% | 0.0017% | 22 µg
CC(C)C(=Nc1ccc(Cl)cc1Cl)OCc1cccc(Oc2ccc(F)cc2)c1 [Compound 312] | > 0.1% | 0.006% | > 100 µg
CC(C)C(=Nc1ccc2c(c1)OCO2)OCc1ccc(F)c(Oc2ccc(Cl)cc2)c1 [Compound 313] | 0.013% | 0.00025% | > 100 µg
CCC(C)C(=Nc1ccc(C(C)C)cc1)OCc1cccc(Oc2ccccc2)c1 (stereo not drawn) [Compound 317] | 0.03% | 0.0045% | > 100 µg
CC(C)(F)C(=Nc1ccc(F)c(F)c1)OCc1cccc(Oc2ccc(F)cc2)c1 [Compound 318] | > 0.1% | 0.0007% | 19 µg
CC(C)(F)C(=Nc1cccc(C(F)(F)F)c1)OCc1cccc(Oc2ccc(F)cc2)c1 [Compound 319] | > 0.1% | 0.0007% | 44 µg
CCC(=Nc1ccc(C(C)C)cc1)OCc1cccc(Oc2ccc(F)cc2)c1 [Compound 320] | > 0.1% | 0.0075% | > 100 µg
CCC(CC)C(=Nc1ccc(C(C)C)cc1)OCc1cccc(Oc2ccccc2)c1 [Compound 321] | > 0.1% | 0.05% | > 100 µg
CC(C)c1ccc(N=C(OCc2cccc(Oc3ccc(F)cc3)c2)C(C)(C)C)cc1 [Compound 322] | > 0.1% | 0.007% | > 100 µg
CC(C)C(=Nc1ccc(F)c(Cl)c1)OCc1cc(F)cc(Oc2ccc(F)cc2)c1 [Compound 327] | > 0.1% | 0.005% | > 100 µg
CC(C)C(=Nc1ccc(OC(F)(F)F)c(Cl)c1)OCc1cc(F)cc(Oc2ccc(F)cc2)c1 [Compound 328] | > 0.1% | 0.03% | > 100 µg
CC(C)CC(=Nc1ccc(C(C)C)cc1)OCc1cccc(Oc2ccc(F)cc2)c1 [Compound 329] | > 0.1% | 0.033% | 7 µg

SMILES | LC50 TBW E [1] | LC50 CL [2] | LC50 HF [3]
CC(C)C(=Nc1ccc(F)c(Cl)c1)OCc1cccc(Oc2ccc(I)cc2)c1 [Compound 447] | > 0.1% | 0.0009% | 33 µg
CC(C)C(=Nc1ccc(F)c(Cl)c1)OCc1ccc(Cl)c(Oc2ccc(F)cc2)c1 [Compound 448] | 0.03% | 0.003% | 16 µg
Fc1c(F)c(F)c(COC(=Nc2cccc(Cl)c2Cl)C(Cl)Cl)c(F)c1F [Compound 454] | > 0.1% | 0.03% | > 100 µg
Cc1c(COC(=Nc2ccc(Cl)cc2)C(C)C)cccc1-c1ccccc1 [Compound 455] | > 0.1% | 0.0025% | > 100 µg
Cc1c(COC(=Nc2ccc(F)cc2)C(C)C)cccc1-c1ccccc1 [Compound 458] | > 0.05% | 0.007% | 100 µg
CC(C)C(=Nc1ccc2c(c1)OCO2)OCc1c(F)c(F)c(F)c(F)c1F [Compound 464] | > 0.1% | 0.08% | > 100 µg
CC(C)C(=Nc1ccc2c(c1)OCO2)OCc1cccc(Oc2ccccc2)n1 [Compound 467] | 0.04% | 0.003% | 6 µg
CC(C)C(=Nc1ccc2c(c1)OC(C)(C)O2)OCc1cccc(Oc2ccc(Cl)cc2)n1 [Compound 468] | > 0.1% | > 0.1% | 50 µg
CC(C)C(=Nc1cccc(C(F)(F)F)c1)OCc1cccc(Oc2ccncc2)c1 [Compound 469] | > 0.1% | 0.02% | 40 µg
CC(C)C(=Nc1ccc(F)c(Cl)c1)OCc1cccc(Oc2ccncc2)c1 [Compound 470] | > 0.1% | 0.02% | 25 µg
CC(C)C(=Nc1ccc(F)c(Cl)c1)OCc1cccc(OCc2ccccc2)c1 [Compound 472] | > 0.1% | 0.0025% | > 100 µg
CC(C)C(=Nc1ccc(F)c(Cl)c1)OCc1ccc(F)c(Br)c1 [Compound 473] | > 0.1% | 0.025% | > 100 µg
CC(C)C(=Nc1ccc(F)c(Cl)c1)OCc1coc(Cc2ccccc2)c1 [Compound 474] | > 0.1% | 0.0012% | 8 µg
CC(C)C(=Nc1cccc(C(F)(F)F)c1)OCc1ccc(OCc2ccccc2)cc1 [Compound 476] | > 0.1% | 0.015% | > 100 µg
C=CCOc1cccc(COC(=Nc2ccc(Cl)c(Cl)c2)C(C)C)c1 [Compound 481] | > 0.1% | 0.015% | > 100 µg
CC(C)C(=Nc1ccc(Cl)cc1)OCc1coc(Cc2ccccc2)c1 [Compound 484] | > 0.1% | 0.003% | 16 µg
CC(C)C(=Nc1ccc(F)c(F)c1)OCc1coc(Cc2ccccc2)c1 [Compound 485] | > 0.1% | > 0.1% | 24 µg
CC(C)C(=Nc1ccc(F)c(Cl)c1)OCc1ccc(OCc2ccc(F)cc2)cc1 [Compound 487] | > 0.1% | 0.023% | > 100 µg
CC(C)C(=Nc1cccc(C(F)(F)F)c1)OCc1ccc(OCc2ccc(F)cc2)cc1 [Compound 488] | > 0.1% | 0.025% | > 100 µg
CC(C)C(=Nc1cccc(C(F)(F)F)c1)OCc1cccc(OCc2ccc(F)cc2)c1 [Compound 489] | > 0.1% | < 0.1% | > 100 µg
CC(C)C(=Nc1ccc(F)cc1)OCc1coc(Cc2ccccc2)c1 [Compound 491] | 0.08% | 0.0028% | 9 µg
CC(C)C(=Nc1cccc(C(F)(F)F)c1)OCc1cccc(Oc2ccc(Br)cc2)n1 [Compound 493] | 0.05% | 0.0008% | 36 µg
Cc1ccc(Oc2cccc(COC(=Nc3ccc(F)c(Cl)c3)C(C)C)n2)cc1 [Compound 494] | > 0.1% | 0.003% | 34 µg
Cc1ccc(Oc2cccc(COC(=Nc3cccc(C(F)(F)F)c3)C(C)C)n2)cc1 [Compound 495] | 0.1% | 0.012% | > 100 µg
CC(C)C(=Nc1ccc(C(C)(C)C)cc1)OCc1cccc(Oc2ccccc2)n1 [Compound 496] | > 0.1% | 0.006% | > 100 µg
CC(C)C(=Nc1ccc(C(C)(C)C)cc1)OCc1cccc(Oc2ccc(Cl)cc2)n1 [Compound 497] | > 0.1% | 0.0075% | > 100 µg
